Data taken from US10766898B2, “Therapeutic compound for pain and synthesis thereof” (priority 2015, dated 2020).
Where “and” joins values, the source holds several entries; their conditions need not be identical. Equal values may be shown once.

System: heat hypersensitivity of λ-carrageenan-injected right hind paws of mice
Assay: λ-carrageenan-induced paw inflammation, heat hypersensitivity on hotplate (57° C.), time until first response
Format: in vivo
Settings: for Response time at 3.5 h, avg: average of n=5 animals; for Response time at 3.5 h, avg / Response time at 3.5 h: 10 mg/kg ip 30 min before 1% λ-carrageenan, hotplate 57° C., 3.5 h after carrageenan; for Response time at 3.5 h: individual animal, 10 mg/kg; for average response time compared with pretreatment baseline response time: n=5 animals, 10 mg/kg ip, 3.5 h after λ-carrageenan
Description: Intra plantar injection of 1% […] may be used to induce local inflammation to the paws of test subject mice. In general, local inflammation is expressed as paw swelling and increased sensitivity to heat stimuli. Therefore, the effect of a test item on changes in heat hypersensitivity can be assessed. Using the protocol set forth, the therapeutic effect of the compounds of Formula XVIII and XXII were evaluated.
Animals were dosed with a test compound at time zero (control where given vehicle only) at 10 mg/kg ip (test item was dissolved in a 20% […] solution). After 30 minutes the animals were slightly anesthetized with isoflurane, and 0.1 ml of a 1% λ-carrageenan suspension in Distilled Water was injected into the plantar side of the right hind paws of the mice. After 3.5 hours after the λ-carrageenan administration, the animals were placed on a hotplate apparatus maintained at 57° C., and the time until the first response was recorded.

Compound | Response time at 3.5 h, avg | Response time at 3.5 h | average response time compared with pretreatment baseline response time
COCC(=O)N1C[C@@H]2C[C@@H]3C1[C@@H](O)[C@H](C2)N3Cc1cccc(C(N)=O)c1 (relative stereo) [Compound of Formula XXII, 3-(((2S*,3S*,6R*,7aR*)-3-hydroxy-4-(2-methoxyacetyl)octahydro-1H-2,6-methanopyrrolo[3,2-b]pyridin-1-yl)methyl)benzamide] | 12.2 s | 12 sec (2×) and 14 sec and 13 sec and 10 sec | exceeded the pretreatment baseline response time
O=C(O[C@H]1[C@@H]2[C@@H]3C[C@@H](C[C@H]1N3Cc1ccc3c(c1)OCO3)CN2C(=O)c1ccc(F)cn1)C1CC1 (relative stereo) [Compound of Formula XVIII, (2R*,3R*,3aS*,6S*,7aS*)-1-(benzo[d][1,3]dioxol-5-ylmethyl)-4-(5-fluoropicolinoyl)octahydro-1H-2,6-methanopyrrolo[3,2-b]pyridin-3-yl cyclopropanecarboxylate] | 14.6 s | 16 sec (2×) and 14 sec and 12 sec and 15 sec | exceeded the pretreatment baseline response time
